Patent US20230320995A1, “IONIZABLE CATIONIC LIPIDS AND LIPID NANOPARTICLES” (CAPSTAN THERAPEUTICS, INC., priority 2022, published 2023)

Assays:
[1] = physical-chemical properties of LNP encapsulating mCherry mRNA; format: physicochemical; conditions: for Hydrodynamic diameter: LNP: ionizable lipid/DSPC/cholesterol/DMG-PEG2000 50:10:38.5:1.5, mCherry mRNA, pH 7.4 Tris, 25° C.
From the text: The mRNA was encapsulated in LNP using a self-assembly process in which an aqueous solution of mRNA at pH=3.5 is rapidly mixed with a solution of lipids dissolved in ethanol, then followed by stepwise phosphate and Tris buffer dilution and tangential flow filtration (TFF) purification. LNP composition in this study was: ionizable cationic lipid/distearoylphosphatidylcholine/cholesterol/DMG-PEG2000 (50:10:38.5:1.5 mol/mol) and were encapsulated at an N/P ratio (the ratio of positively-chargeable lipid amine (N=nitrogen) groups to negatively-charged nucleic acid phosphate (P) groups) at 6. LNPs were frozen at −80° C. […] The diameter of the nanoparticles was measured by dynamic light scattering using a Zetasizer Nano ZS (Malvern Instruments Ltd., Malvern, UK) instrument. Size measurement was carried out in pH 7.4 Tris buffer at 25° C. in relevant disposable capillary cells. A non-invasive back scatter system (NIBS) with a scattering angle of 173° was used for size measurements.

mouse splenic T cells [2] = experiment: targeted transfection of T cells in vitro with CD5-targeted tLNP; format: cell-based; conditions: activated mouse splenic T cells, 0.6 μg tLNP per well; for transfection rate (proportion of CD3+ cells mCherry positive): 1 hour, read next day
Experimental: To assess the performance of tLNP described in Example 35 they were used to transfect mouse T cells in tissue culture. Mouse splenic T cells were isolated from mechanically dissociated mouse spleens using a standard T cell isolation kit (Stem Cell Technologies #19851). Isolated T cells were cultured in complete RPMI medium supplemented with murine interleukin-2 in the presence of CD3/CD28 T cell activation beads (Gibco #11453D) for 3 days. Following activation, T cells were magnetically separated from the activation beads and transferred to a 96-well plate at a concentration of 2×10^5 cells per well in 100 μL of complete RPMI medium. tLNP formulations as described in Example 35 (above) were diluted to 100 μg/mL and 6 μL (0.6 μg) of tLNP was added to each well of cells to be tested. Cells were incubated with tLNPs at 37° C. for 1 hour before tLNPs were washed away by centrifuging the plate, removing the supernatant, and replacing with fresh medium. Transfected cells were then returned to the incubator overnight. The next day, cells were washed and resuspended in stain buffer containing fluorescently tagged antibodies against T cells markers for 30 minutes before a final wash. After washing, cells were resuspended in stain buffer and run on the Novocyte Quanteon flow cytometer to detect mCherry expression as well as murine T cell markers. Results for CD3^+ T cells are depicted in FIG. 6.

HEK293F cells = experiment: transfection of HEK293F cells with mCherry mRNA LNP; format: cell-based; conditions: highest dose tested (2 μg RNA per well), 24 hours
Experimental: The ability of the LNP formed in the preceding Example to transfect HEK293F cells, a human embryonic kidney cell-derived cell line, with the mCherry mRNA was assessed. Viral Production Cells (Gibco Catalog number: A35347), a derivative of the HEK 293F cell line adapted to a chemically-defined, serum-free and protein-free medium (LV-MAX™ Production Medium; Gibco Catalog number: A3583401) were grown in suspension, sedimented, resuspended at about 1×10^6 cells/mL, and 200 μL distributed to the wells of a 96-well U-bottom plate. Frozen LNP were thawed and diluted to 100 μg mRNA/mL with sterile water for injection. An appropriate volume of LNP was added to provide 0, 0.3, 0.6, or 2 μg RNA per well in duplicate and mixed by re-pipetting. The cells were then incubated for 1 hour at 37° C. in a CO2 incubator, washed three times with phosphate buffered saline, resuspended in 400 μL of medium in a deep-well 96-well plate, and incubated at 37° C. in a CO2 incubator on an orbital shaker at 900 RPM.
Twenty-four hours after addition of the LNP to the cells they were stained with Aqua Live/Dead (Thermo: catalog L34965) to assess cell viability. Transfection rate and expression level in the transfected cells was assessed by flow cytometry based on mCherry fluorescence.

mouse splenic T cells [3] = experiment: targeted transfection of T cells in vivo with CD5-targeted tLNP; conditions: C57Bl/6 mice, 10 μg via tail vein, spleen at 24 hours
Experimental: To assess the performance of tLNP described in Example 35 they were used to transfect mouse T cells by injecting the tLNP into live mice and evaluated for their ability to generate murine T cells that express the mCherry reporter gene in vivo. All tLNP test articles were thawed at room temperature for 30 minutes and then diluted 1:2 with sterile water for injection to achieve a final dose concentration of 100 μg/mL. 100 μL (10 μg) of each test article was then injected via the tail vein into 8-week-old female C57Bl/6 mice. All treated mice were then sacrificed at 24 hours post-treatment and their spleens collected. Each spleen was then dissociated to single cell suspension and stained with antibodies to identify T cells, B cells, monocytes and non-hematopoietic cells. Stained samples were then analyzed by flow cytometry for expression of mCherry in immune cell subsets, and non-hematopoietic cells. Data analysis was performed using FlowJo (Version 10.8.1) and GraphPad Prism (9.4.1.).

Row | SMILES | Encapapsulation Efficiency ([1]; LNP 50:10:38.5:1.5, mCherry mRNA, N/P 6) | PDI (polydispersity index) ([1]; LNP 50:10:38.5:1.5, mCherry mRNA, DLS) | Hydrodynamic diameter ([1]; N/P 6, DLS) | transfection rate (proportion of CD3+ cells mCherry positive) (mouse splenic T cells [2]) | transfection rate (HEK293F cells) | level of mCherry expression (MFI) (mouse splenic T cells [2]) | level of mCherry expression (MFI) in vivo (mouse splenic T cells [3]) | transfection rate of splenic T cells in vivo (mouse splenic T cells [3])
1 | CCCCCCCCCC(=O)OCC(COC(=O)CCCCCCCCC)CC(=O)OCCN(CCOC(=O)CC(COC(=O)CCCCCCCCC)COC(=O)CCCCCCCCC)C(=O)NCCCN(C)C [Compound A-2] | 99% | 0.13 | 73 nm | poor, but still positive |  |  |  | 
2 | CCCCCCCCC(=O)OCC(COC(=O)CCCCCCCC)CC(=O)OCCN(CCOC(=O)CC(COC(=O)CCCCCCCC)COC(=O)CCCCCCCC)C(=O)OCCN(C)C [Compound A-11] |  |  | 82 nm | ~80% | ~50% | high level of expression | distinctly greater than that achieved with the other tLNP | around 7%
